Results on 10 compounds are retold here after ChEMBL document CHEMBL1146738, “Synthesis and glucose-6-phosphatase inhibitory activity of (thiouriedo)alkanoic acid esters” (Bioorg Med Chem Lett, 2004).

The inhibition is the percentage by which the read-out fell short of the control. High values mean strong suppression, low ones little suppression.

The target in this test is T1, Glucose-6-phosphatase catalytic subunit 1 (Rattus norvegicus) (UniProt P43428).
T1 sequence (whole entry): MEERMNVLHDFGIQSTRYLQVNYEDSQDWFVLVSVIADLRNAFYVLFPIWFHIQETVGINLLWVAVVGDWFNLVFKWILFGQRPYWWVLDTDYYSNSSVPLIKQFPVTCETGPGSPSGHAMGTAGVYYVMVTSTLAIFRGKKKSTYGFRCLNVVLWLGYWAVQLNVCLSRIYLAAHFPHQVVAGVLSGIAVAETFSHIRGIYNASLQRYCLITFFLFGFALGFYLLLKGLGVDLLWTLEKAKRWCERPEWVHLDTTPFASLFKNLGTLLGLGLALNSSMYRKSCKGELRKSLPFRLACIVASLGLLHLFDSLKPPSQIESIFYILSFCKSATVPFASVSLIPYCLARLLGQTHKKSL
Briefly: In vitro inhibition of glucose-6-phosphatase obtained from rat was determined at 100 uM concentration.
`COC(=O)C/N=C(\S)Nc1ccc(Cl)cn1` came in with an inhibition of 74.6%.

`COC(=O)C(Cc1c[nH]c2ccccc12)/N=C(\S)Nc1ccccn1` (stereo not given) had an inhibition of 21.5%.

`COC(=O)C(C)/N=C(\S)Nc1ccccn1` (stereo not given) yielded an inhibition of 17.7%.

As to `N=C(N)/N=C(\S)Nc1ccccn1`, the inhibition turned out to be 20%. Turning to `CCOC(=O)CC/N=C(\S)Nc1ccc(Cl)cn1`, the inhibition amounted to 54.4%. For `CCOC(=O)C(Cc1ccccc1)/N=C(\S)Nc1ccc(Cl)cn1` (stereo not given), the inhibition is 50%.

The compound `N/N=C(\S)Nc1ccccn1` returned an inhibition of 38.5%.

Compound `CCOC(=O)C(Cc1ccccc1)/N=C(\S)Nc1ccccn1` (stereo not given) yielded an inhibition of 29%.

Regarding `COC(=O)C(Cc1c[nH]c2ccccc12)/N=C(\S)Nc1ccc(Cl)cn1` (stereo not given), the inhibition was found to be 52.2%. In turn, `CCOC(=O)CC/N=C(\S)Nc1ccccn1` yielded an inhibition of 18%.
